Columns and labels:
Format in all cases: biochemical
JAK1 = JAK1 (Homo sapiens, UniProt P23458); assay: JAK kinase activity, homogeneous time-resolved fluorescence (JAK1 reaction system); details: ATP 2 μM, JAK1 protein 0.2 ng/μL; read-out: JAK 1 activity
Procedure, shortened: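 HTRF assay: JAK1 (0.2 ng/μL) with 2 μM ATP and substrate in 50 mM Hepes pH 7.0, 5 mM MgCl2, 1 mM DTT, 1 h. Phospho-substrate antibody/XL-615 detection with EDTA; 665/615 nm ratio, excitation 320 nm. IC50 from Hill-type fit against no-enzyme and no-compound controls.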

JAK2 = JAK2 (Homo sapiens, UniProt O60674); assay: JAK kinase activity, homogeneous time-resolved fluorescence (JAK2 reaction system); details: ATP 2 μM, JAK2 protein 0.01 ng/μL
JAK2, sequence (O60674 whole entry): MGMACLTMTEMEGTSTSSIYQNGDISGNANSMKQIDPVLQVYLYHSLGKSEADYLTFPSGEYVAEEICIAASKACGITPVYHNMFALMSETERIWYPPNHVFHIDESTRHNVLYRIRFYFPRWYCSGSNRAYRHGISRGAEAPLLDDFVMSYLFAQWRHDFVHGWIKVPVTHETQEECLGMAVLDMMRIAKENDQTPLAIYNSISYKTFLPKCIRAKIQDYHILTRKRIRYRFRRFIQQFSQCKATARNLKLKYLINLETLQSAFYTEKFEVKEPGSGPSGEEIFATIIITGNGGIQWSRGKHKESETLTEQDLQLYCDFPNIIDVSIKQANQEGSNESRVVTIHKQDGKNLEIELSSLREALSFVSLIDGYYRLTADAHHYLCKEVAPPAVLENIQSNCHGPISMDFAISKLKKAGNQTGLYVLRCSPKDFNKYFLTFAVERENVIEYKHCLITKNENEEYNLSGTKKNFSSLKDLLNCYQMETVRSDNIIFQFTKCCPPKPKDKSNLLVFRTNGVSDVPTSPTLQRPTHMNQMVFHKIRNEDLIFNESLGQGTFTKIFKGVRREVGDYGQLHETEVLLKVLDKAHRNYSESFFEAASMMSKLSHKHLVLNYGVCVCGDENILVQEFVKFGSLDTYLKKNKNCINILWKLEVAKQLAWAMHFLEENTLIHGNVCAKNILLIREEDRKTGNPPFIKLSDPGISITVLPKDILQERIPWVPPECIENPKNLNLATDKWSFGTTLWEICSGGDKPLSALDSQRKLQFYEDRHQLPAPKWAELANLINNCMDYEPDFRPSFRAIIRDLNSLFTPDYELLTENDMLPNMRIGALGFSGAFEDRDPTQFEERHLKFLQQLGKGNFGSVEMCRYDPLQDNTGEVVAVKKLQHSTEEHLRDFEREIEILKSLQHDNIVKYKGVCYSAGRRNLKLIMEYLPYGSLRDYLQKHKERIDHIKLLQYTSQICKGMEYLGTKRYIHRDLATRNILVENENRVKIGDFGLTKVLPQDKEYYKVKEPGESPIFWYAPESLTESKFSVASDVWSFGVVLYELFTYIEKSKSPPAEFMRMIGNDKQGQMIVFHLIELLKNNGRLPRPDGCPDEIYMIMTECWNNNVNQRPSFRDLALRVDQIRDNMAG
Procedure, shortened: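 IC50 derived by Hill-equation fit of the 665/615 nm time-resolved fluorescence ratio after EDTA-containing detection mix with anti-phosphosubstrate antibody. Preceding 1 h reaction contained 2 μM ATP, 0.01 ng/μL JAK2, substrate, 50 mM Hepes pH 7.0, 5 mM MgCl2, 1 mM DTT.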

JAK3 = target: T1, JAK3 (Homo sapiens, UniProt P52333); assay: JAK kinase activity, homogeneous time-resolved fluorescence (JAK3 reaction system); details: ATP 2 μM, JAK3 protein 0.04 ng/μL; read-out: JAK 3 activity
T1 sequence (P52333 1-1124): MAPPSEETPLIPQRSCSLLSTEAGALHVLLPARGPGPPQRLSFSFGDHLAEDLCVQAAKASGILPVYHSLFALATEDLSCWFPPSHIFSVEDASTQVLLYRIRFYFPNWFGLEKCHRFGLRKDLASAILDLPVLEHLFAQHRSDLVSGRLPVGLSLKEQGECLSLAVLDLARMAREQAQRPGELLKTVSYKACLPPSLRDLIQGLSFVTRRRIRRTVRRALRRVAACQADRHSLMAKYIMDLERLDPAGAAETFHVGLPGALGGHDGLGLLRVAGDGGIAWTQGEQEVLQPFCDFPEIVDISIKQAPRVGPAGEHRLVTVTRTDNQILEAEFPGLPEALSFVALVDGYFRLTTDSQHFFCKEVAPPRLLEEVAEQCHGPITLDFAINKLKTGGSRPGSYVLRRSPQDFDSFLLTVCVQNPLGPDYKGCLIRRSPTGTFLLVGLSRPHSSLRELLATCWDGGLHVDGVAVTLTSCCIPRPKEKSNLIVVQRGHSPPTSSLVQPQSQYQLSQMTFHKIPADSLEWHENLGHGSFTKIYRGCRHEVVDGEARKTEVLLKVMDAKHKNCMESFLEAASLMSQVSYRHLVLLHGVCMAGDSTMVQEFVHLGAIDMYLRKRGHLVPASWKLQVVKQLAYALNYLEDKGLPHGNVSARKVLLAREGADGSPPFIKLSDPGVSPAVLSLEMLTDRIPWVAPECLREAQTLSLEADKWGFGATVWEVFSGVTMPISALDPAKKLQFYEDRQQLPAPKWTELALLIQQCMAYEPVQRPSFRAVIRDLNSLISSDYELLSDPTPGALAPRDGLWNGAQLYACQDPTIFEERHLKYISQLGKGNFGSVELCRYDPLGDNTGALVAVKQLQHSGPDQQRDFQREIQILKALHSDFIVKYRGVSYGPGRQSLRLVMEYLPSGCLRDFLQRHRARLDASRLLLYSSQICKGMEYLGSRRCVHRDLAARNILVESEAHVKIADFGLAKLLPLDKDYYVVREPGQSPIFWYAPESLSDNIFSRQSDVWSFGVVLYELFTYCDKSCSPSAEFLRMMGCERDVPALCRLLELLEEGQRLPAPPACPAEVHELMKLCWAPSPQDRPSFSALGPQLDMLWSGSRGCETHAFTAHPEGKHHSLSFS

TYK2 = TYK2 (Homo sapiens, UniProt P29597); assay: JAK kinase activity, homogeneous time-resolved fluorescence (TYK2 reaction system); details: ATP 2 μM, TYK2 protein 0.2 ng/μL; read-out: TYK 2 activity
TYK2, sequence (P29597 whole entry): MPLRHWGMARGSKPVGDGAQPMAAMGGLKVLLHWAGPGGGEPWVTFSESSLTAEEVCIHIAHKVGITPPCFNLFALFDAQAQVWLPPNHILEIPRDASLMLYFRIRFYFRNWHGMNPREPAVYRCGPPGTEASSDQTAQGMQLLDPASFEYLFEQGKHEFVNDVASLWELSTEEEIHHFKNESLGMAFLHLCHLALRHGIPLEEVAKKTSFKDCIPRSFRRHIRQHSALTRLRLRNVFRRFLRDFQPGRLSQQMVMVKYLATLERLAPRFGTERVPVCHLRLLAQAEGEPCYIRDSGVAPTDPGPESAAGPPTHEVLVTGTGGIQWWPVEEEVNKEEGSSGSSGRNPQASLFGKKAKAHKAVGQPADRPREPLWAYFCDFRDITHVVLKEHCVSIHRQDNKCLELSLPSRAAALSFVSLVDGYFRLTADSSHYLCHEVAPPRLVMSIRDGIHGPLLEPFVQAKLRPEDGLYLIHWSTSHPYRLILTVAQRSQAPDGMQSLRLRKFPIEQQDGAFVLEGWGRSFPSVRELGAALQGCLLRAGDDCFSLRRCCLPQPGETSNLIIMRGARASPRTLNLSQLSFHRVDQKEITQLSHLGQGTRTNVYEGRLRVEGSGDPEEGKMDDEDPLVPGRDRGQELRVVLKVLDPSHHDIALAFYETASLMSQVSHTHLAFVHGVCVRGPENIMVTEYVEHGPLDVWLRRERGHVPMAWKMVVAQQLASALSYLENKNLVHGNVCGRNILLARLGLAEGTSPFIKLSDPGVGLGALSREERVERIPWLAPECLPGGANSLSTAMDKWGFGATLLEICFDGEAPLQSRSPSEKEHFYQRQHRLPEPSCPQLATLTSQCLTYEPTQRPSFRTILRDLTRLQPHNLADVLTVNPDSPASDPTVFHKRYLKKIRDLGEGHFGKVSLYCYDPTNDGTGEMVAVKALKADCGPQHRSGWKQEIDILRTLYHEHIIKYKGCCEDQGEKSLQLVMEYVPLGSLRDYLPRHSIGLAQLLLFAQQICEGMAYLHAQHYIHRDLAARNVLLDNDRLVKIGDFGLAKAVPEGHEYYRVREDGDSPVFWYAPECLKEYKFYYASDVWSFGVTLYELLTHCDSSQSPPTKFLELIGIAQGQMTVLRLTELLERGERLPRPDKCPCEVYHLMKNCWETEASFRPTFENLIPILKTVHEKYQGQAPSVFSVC
Procedure, shortened: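 Activity read as the 665 nm/615 nm ratio after adding EDTA-containing detection mix with anti-phospho-substrate antibody and XL-615. Beforehand, 0.2 ng/μL TYK2, 2 μM ATP, substrate and compound reacted 1 h in pH 7.0 Hepes buffer with MgCl2 and DTT. IC50 fitted with Hill-slope equation.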

JAK1, sequence (P23458 whole entry): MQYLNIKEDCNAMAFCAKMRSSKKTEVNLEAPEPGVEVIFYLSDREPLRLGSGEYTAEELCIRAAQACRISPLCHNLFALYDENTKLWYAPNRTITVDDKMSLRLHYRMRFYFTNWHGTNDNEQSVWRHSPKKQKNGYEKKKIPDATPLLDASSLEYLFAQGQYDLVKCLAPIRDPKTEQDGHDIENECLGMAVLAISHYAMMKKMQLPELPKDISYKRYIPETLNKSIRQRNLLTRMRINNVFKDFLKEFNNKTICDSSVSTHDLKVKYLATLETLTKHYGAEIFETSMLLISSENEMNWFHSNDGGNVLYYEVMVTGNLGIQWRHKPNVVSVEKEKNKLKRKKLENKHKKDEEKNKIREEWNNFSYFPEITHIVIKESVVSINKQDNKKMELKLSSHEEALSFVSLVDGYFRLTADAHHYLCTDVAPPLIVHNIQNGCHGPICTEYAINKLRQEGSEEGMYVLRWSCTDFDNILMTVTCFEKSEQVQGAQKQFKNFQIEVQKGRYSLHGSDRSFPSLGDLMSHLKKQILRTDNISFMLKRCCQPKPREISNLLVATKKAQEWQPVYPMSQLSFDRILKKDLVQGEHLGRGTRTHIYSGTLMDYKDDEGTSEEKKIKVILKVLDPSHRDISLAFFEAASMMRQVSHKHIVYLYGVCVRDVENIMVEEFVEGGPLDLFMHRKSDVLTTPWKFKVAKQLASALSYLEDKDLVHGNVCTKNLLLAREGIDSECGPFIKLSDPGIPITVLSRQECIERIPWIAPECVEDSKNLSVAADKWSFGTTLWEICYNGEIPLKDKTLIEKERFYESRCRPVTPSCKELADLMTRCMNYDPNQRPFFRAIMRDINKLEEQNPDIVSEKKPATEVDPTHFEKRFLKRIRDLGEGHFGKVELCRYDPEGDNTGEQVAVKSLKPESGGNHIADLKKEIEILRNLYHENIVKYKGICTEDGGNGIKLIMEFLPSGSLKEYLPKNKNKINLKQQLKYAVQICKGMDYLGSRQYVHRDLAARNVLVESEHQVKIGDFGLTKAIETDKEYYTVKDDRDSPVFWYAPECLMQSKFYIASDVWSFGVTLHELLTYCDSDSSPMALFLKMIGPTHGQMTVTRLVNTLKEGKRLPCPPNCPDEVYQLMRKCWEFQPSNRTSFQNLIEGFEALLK

IC50 (JAK1) [µM]	IC50 (JAK2) [µM]	IC50 (JAK3) [µM]	IC50 (TYK2) [µM]	Structure (SMILES)
1 to 10	1 to 10	0.011 to 0.1	> 10	Nc1cc2ccc1-c1ccnc(n1)Nc1ccc(Oc3cccnc3)c(c1)COc1ccc(cc1)NC2=O [Example 205, 1^2-amino-4^4-(pyridin-3-oxy)-6-oxa-3,8-diaza-2(4,2)-pyrimidina-1,7(1,4),4(1,3)-tribenzenacyclononaphane-9-one]
1 to 10	0.101 to 1	< 0.01	> 10	O=C1Nc2ccc(cc2)OCc2cc(ccc2OCC2CC2)Nc2nccc(n2)-c2ccc1cc2[N+](=O)[O-] [Example 206, 4^4-(cyclopropylmethoxy)-1-nitro-6-oxa-3,8-diaza-2(4,2)-pyrimidina-1,7(1,4),4(1,3)-tribenzenacyclo-nonaphane-9-one]
> 10	1 to 10	0.011 to 0.1	> 10	Nc1cc2ccc1-c1ccnc(n1)Nc1ccc(OCC3CC3)c(c1)COc1ccc(cc1)NC2=O [Example 208, 1^2-amino-4^4-(cyclopropylmethoxy)-6-oxa-3,8-diaza-2(4,2)-pyrimidina-1,7(1,4),4(1,3)-tribenzenecyclo-nonaphane-9-one]
> 10	1 to 10	1 to 10	> 10	O=C1Nc2ccc(cc2)OCc2cc(ccc2OCC2CC(F)(F)C2)Nc2nccc(n2)-c2ccc1cc2[N+](=O)[O-] [Example 209, 4^4-((3,3-difluorocyclobutyl)methoxy)-1^2-nitro-6-oxa-3,8-diaza-2(4,2)-pyrimidina-1,7(1,4),4(1,3)-tri-benzenacyclononaphane-9-one]
0.101 to 1	0.101 to 1	0.011 to 0.1	1 to 10	Nc1cc2ccc1-c1ccnc(n1)Nc1ccc(OCC3CCOC3)c(c1)COc1ccc(cc1)NC2=O (centres unmarked) [Example 211, 1^2-amino-4^4-((tetrahydrofuran-3-yl)methoxy)-6-oxa-3,8-diaza-2(4,2)-py-rimidina-1,7(1,4),4(1,3)-tribenzena-cyclononaphane-9-one]
1 to 10	1 to 10	1 to 10	> 10	O=C1Nc2ccc(cc2)OCc2cc(ccc2OCC2CCCOC2)Nc2nccc(n2)-c2ccc1cc2[N+](=O)[O-] (centres unmarked) [Example 212, 1^2-nitro-4^4-((tetrahydro-2H-pyran-3-yl)methoxy)-6-oxa-3,8-diaza-2(4,2)-pyrimidina-1,7(1,4),4(1,3)-tri-benzenacyclononaphane-9-one]
1 to 10	0.101 to 1	0.011 to 0.1	1 to 10	Nc1cc2ccc1-c1ccnc(n1)Nc1ccc(OCC3COC3)c(c1)COc1ccc(cc1)NC2=O [Example 214, 1-amino-4^4-(oxetan-3-ylmethoxy)-6-oxa-3,8-diaza-2(4,2)-pyrimidina-1,7(1,4)4(1,3)-tribenzenacyclonona-phane-9-one]
0.101 to 1	0.101 to 1	0.011 to 0.1	1 to 10	O=C1Nc2ccc(cc2)OCc2cc(ccc2F)Nc2nccc(n2)-c2ccc1cc2O [Example 216, 4^4-fluoro-1^2-hydroxy-6-oxa-3,8-dia-za-2(4,2)-pyrimidina-1,7(1,4),4(1,3)-tribenzenacyclononaphane-9-one]
0.101 to 1	0.101 to 1	0.011 to 0.1	1 to 10	O=C1Nc2ccc(cc2)OCc2cc(ccc2OC2CC2)Nc2nccc(n2)-c2ccc1cc2O [Example 217, 4^4-cyclopropoxy-1^2-hydroxy-6-oxa-3,8-diaza-2(4,2)-pyrimidina-1,7(1,4),4(1,3)-tribenzenacyclononaphane-9-one]

More lines, now with the values behind:

Structure (SMILES)	IC50 (JAK1) [µM]	IC50 (JAK2) [µM]	IC50 (JAK3) [µM]	IC50 (TYK2) [µM]
CC(C)COc1ccc2cc1COc1ccc(cc1)NC(=O)c1ccc(c([N+](=O)[O-])c1)-c1ccnc(n1)N2 [Example 201, 4^4-isobutoxy-1^2-nitro-6-oxa-3,8-dia-za-2(4,2)-pyrimidina-1,7(1,4),4(1,3)-tribenzenacyclononaphane-9-one]	> 10	> 10	1 to 10	> 10
CC(C)COc1ccc2cc1COc1ccc(cc1)NC(=O)c1ccc(c(N)c1)-c1ccnc(n1)N2 [Example 202, 1^2-amino-4^4-isobutoxy-6-oxa-3,8-di-aza-2(4,2)-pyrimidina-1,7(1,4),4(1,3)-tribenzenacyclononaphane-9-one]	1 to 10	1 to 10	0.011 to 0.1	> 10
O=C1Nc2ccc(cc2)OCc2cc(ccc2OC2CCCOC2)Nc2nccc(n2)-c2ccc1cc2[N+](=O)[O-] (centres unmarked) [Example 203, 1^2-nitro-4^4-((tetrahydro-2H-pyran-3-yl)oxy)-6-oxa-3,8-diaza-2(4,2)-pyri-midina-1,7(1,4),4(1,3)-tribenzenacyclo-nonaphane-9-one]	1 to 10	1 to 10	0.101 to 1	> 10
O=C1Nc2ccc(cc2)OCc2cc(ccc2Oc2cccnc2)Nc2nccc(n2)-c2ccc1cc2[N+](=O)[O-] [Example 204, 1-nitro-4^4-(pyridin-3-oxy)-6-oxa-3,8-diaza-2(4,2)-pyrimidina-1,7(1,4),4(1,3)-tribenzenacyclononaphen-9-one]	1 to 10	> 10	1 to 10	> 10
Cc1cc2ccc1NC(=O)c1ccc(c(N)c1)-c1ccnc(n1)Nc1ccc(OC3CC3)c(c1)CO2 [Example 207, 1^2-amino-4^4-cyclopropoxy-7^3-meth-yl-6-oxa-3,8-diaza-2(4,2)-pyrimidina-1,7(1,4),4(1,3)-tribenzenacyclo-nonaphane-9-one]	0.101 to 1	0.101 to 1	0.011 to 0.1	1 to 10
Nc1cc2ccc1-c1ccnc(n1)Nc1ccc(OCC3CC(F)(F)C3)c(c1)COc1ccc(cc1)NC2=O [Example 210, 1^2-amino-4^4-((3,3-difluorocyclobutyl)methoxy)-6-oxa-3,8-diaza-2(4,2)-pyrimidina-1,7(1,4),4(1,3)-tribenz-enacyclononaphane-9-one]	> 10	> 10	0.011 to 0.1	> 10
Nc1cc2ccc1-c1ccnc(n1)Nc1ccc(OCC3CCCOC3)c(c1)COc1ccc(cc1)NC2=O (centres unmarked) [Example 213, 1^2-amino-4^4-((tetrahydro-2H-pyran-3-yl)methoxy)-6-oxa-3,8-diaza-2(4,2)-pyrimidina-1,7(1,4),4(1,3)-tri-benzenacyclononaphane-9-one]	1 to 10	1 to 10	0.011 to 0.1	> 10
O=C1Nc2ccc(cc2)OCc2cc(ccc2OC2CCCC2)Nc2nccc(n2)-c2ccc1cc2O [Example 215, 4^4-(cyclopentoxy)-1^2-hydroxy-6-oxa-3,8-diaza-2 (4,2)-pyrimidina-1,7(1,4),4(1,3)-tribenzenacyclononaphane-9-one]	1 to 10	0.101 to 1	0.011 to 0.1	1 to 10

From patent publication US20230203059A1, “MACROCYCLIC JAK INHIBITOR AND USES THEREOF” (Biopolar Hongye (Guangdong) Pharmaceutical Co. Ltd., priority 2020, published 2023)
